Experiments:
Format in all cases: cell-based
[1] = test system: E. coli BL21; assay: MIC against Gram-negative bacteria: E. coli BL21; details: 5×10^5 CFU/mL
How it was run: (§1)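 MIC, the lowest recombinant protein concentration giving no bacterial growth, found by two-fold serial dilution of human EGF-domain proteins in triplicate. Inoculum 5×10^5 CFU/mL in LB from cultures at McFarland 0.5; plates incubated at 37° C, 175 rpm shaking.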

[2] = test system: Enterobacter cloacae; assay: MIC against Gram-negative bacteria: Enterobacter cloacae; details: 5×10^5 CFU/mL
How it was run: as §1

[3] = test system: Klebsiella pneumonia; assay: MIC against Gram-negative bacteria: Klebsiella pneumonia; details: 5×10^5 CFU/mL
How it was run: as §1

[4] = test system: Aeromonas hydrophila; assay: MIC against Gram-negative bacteria: Aeromonas hydrophila; details: 5×10^5 CFU/mL
How it was run: as §1

[5] = test system: Proteus vulgaris; assay: MIC against Gram-negative bacteria: Proteus vulgaris; details: 5×10^5 CFU/mL
How it was run: as §1

[6] = test system: E. coli DH5α; assay: Antibacterial activity: MIC and growth curve against E. coli DH5α in 96-well plate; details: minimal inhibitory concentration against E. coli DH5α; 96-well plate, 5×10^5 CFU/mL, 37° C., judged after 8 h
How it was run: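 Log-phase DH5α (OD600 about 0.5, 37° C, 185 rpm in LB) was pelleted, resuspended in fresh LB and seeded at 5×10^5 CFU/mL with recombinant protein at 50, 25 and 12.5 μg/mL (two-fold series), in triplicate. Plates were shaken at 175 rpm, 37° C, and OD600 was read every 30 min. MIC was the lowest concentration with no growth.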

[7] = test system: Citrobacter diversus; assay: MIC against Gram-negative bacteria: Citrobacter diversus; details: 5×10^5 CFU/mL
How it was run: as §1

[8] = test system: Proteus mirabilis; assay: MIC against Gram-negative bacteria: Proteus mirabilis; details: 5×10^5 CFU/mL
How it was run: as §1

[9] = test system: Pseudomonas aeruginosa; assay: MIC against Gram-negative bacteria: Pseudomonas aeruginosa; details: 5×10^5 CFU/mL
How it was run: as §1

[10] = test system: Moraxella catarrhalis; assay: MIC against Gram-negative bacteria: Moraxella catarrhalis; details: 5×10^5 CFU/mL
How it was run: as §1

[11] = test system: Serratia marcescens; assay: MIC against Gram-negative bacteria: Serratia marcescens; details: 5×10^5 CFU/mL
How it was run: as §1

[12] = 10 h cultivation at 37° C., two-fold serial dilution
[13] = E. coli BL21, 10 h cultivation at 37° C.
[14] = E. coli BL21, 96-well plate, 37° C., 10 h
[15] = Enterobacter cloacae, 96-well plate, 37° C., 10 h
[16] = Klebsiella pneumonia, 96-well plate, 37° C., 10 h
[17] = Aeromonas hydrophila, 96-well plate, 37° C., 10 h
[18] = Proteus vulgaris, 96-well plate, 37° C., 10 h
[19] = Citrobacter diversus, 96-well plate, 37° C., 10 h
[20] = Proteus mirabilis, 96-well plate, 37° C., 10 h
[21] = Pseudomonas aeruginosa, 96-well plate, 37° C., 10 h
[22] = Moraxella catarrhalis, 96-well plate, 37° C., 10 h
[23] = Serratia marcescens, 96-well plate, 37° C., 10 h

PRT1167 (NINDCESNPCRNGGTCIDGVNSYKCICSDGWEGAYCE; listed as Homo sapiens)
50 µg/mL: MIC E. cloacae [2, 12] | MIC [6] | MIC P. mirabilis [8, 12]
12.5 µg/mL: MIC C. diversus [7, 12] | MIC P. aeruginosa [9, 12] | MIC S. marcescens [11, 12]
25 µg/mL: MIC E. coli BL21 [1, 12] | MIC K. pneumonia [3, 12] | MIC A. hydrophila [4, 12] | MIC P. vulgaris [5, 12] | MIC M. catarrhalis [10, 12]

PRT444 (GISECSSQPCQNGGTCVEGVNQYRCICPPGRTGNRCQ; listed as Homo sapiens)
25 µg/mL: MIC [6] | MIC against P. aeruginosa ([9]; 96-well plate, 37° C., 10 h)
50 µg/mL: MIC against K. pneumonia ([3]; 96-well plate, 37° C., 10 h) | MIC against A. hydrophila ([4]; 96-well plate, 37° C., 10 h) | MIC against P. vulgaris ([5]; 96-well plate, 37° C., 10 h) | MIC against M. catarrhalis ([10]; 96-well plate, 37° C., 10 h)
12.5 µg/mL: MIC against E. coli BL21 ([1]; 96-well plate, 37° C., 10 h) | MIC against E. cloacae ([2]; 96-well plate, 37° C., 10 h) | MIC against C. diversus ([7]; 96-well plate, 37° C., 10 h) | MIC against P. mirabilis ([8]; 96-well plate, 37° C., 10 h) | MIC against S. marcescens ([11]; 96-well plate, 37° C., 10 h)

PRT807 (YGDGCQLPCTCQNGADCHSITGGCTCAPGFMGEVCA; listed as Homo sapiens)
50 µg/mL: MIC (μg/mL) E. coli BL21 [1, 13] | MIC (μg/mL) E. cloacae ([2]; E. cloacae, 10 h cultivation at 37° C.) | MIC (μg/mL) P. vulgaris ([5]; P. vulgaris, 10 h cultivation at 37° C.) | MIC (μg/mL) M. catarrhalis ([10]; M. catarrhalis, 10 h cultivation at 37° C.)
12.5 µg/mL: MIC (μg/mL) K. pneumonia ([3]; K. pneumonia, 10 h cultivation at 37° C.) | MIC (μg/mL) A. hydrophila ([4]; A. hydrophila, 10 h cultivation at 37° C.) | MIC (μg/mL) P. mirabilis ([8]; P. mirabilis, 10 h cultivation at 37° C.) | MIC (μg/mL) S. marcescens ([11]; S. marcescens, 10 h cultivation at 37° C.)
25 µg/mL: MIC [6] | MIC (μg/mL) C. diversus ([7]; C. diversus, 10 h cultivation at 37° C.) | MIC (μg/mL) P. aeruginosa ([9]; P. aeruginosa, 10 h cultivation at 37° C.)

PRT1494 (KALCTPRCMNGGLCVTPGFCICPPGFYGVNCD; listed as Homo sapiens)
12.5 µg/mL: MIC (μg/mL) E. coli BL21 [1, 14] | MIC (μg/mL) K. pneumonia [3, 16] | MIC (μg/mL) A. hydrophila [4, 17] | MIC (μg/mL) P. vulgaris [5, 18] | MIC (μg/mL) P. mirabilis [8, 20] | MIC (μg/mL) S. marcescens [11, 23]
25 µg/mL: MIC (μg/mL) E. cloacae [2, 15] | MIC [6] | MIC (μg/mL) C. diversus [7, 19] | MIC (μg/mL) P. aeruginosa [9, 21] | MIC (μg/mL) M. catarrhalis [10, 22]

PRT1379 (GWPSCPGDCQGRGRCVQGVCVCRAGFSGPDC; listed as Homo sapiens)
12.5 µg/mL: MIC against E. coli BL21 [1, 13] | MIC against K. pneumonia ([3]; Klebsiella pneumonia, 10 h cultivation at 37° C.) | MIC against C. diversus ([7]; Citrobacter diversus, 10 h cultivation at 37° C.) | MIC against S. marcescens ([11]; Serratia marcescens, 10 h cultivation at 37° C.)
50 µg/mL: MIC against E. cloacae ([2]; Enterobacter cloacae, 10 h cultivation at 37° C.) | MIC [6] | MIC against P. mirabilis ([8]; Proteus mirabilis, 10 h cultivation at 37° C.) | MIC against P. aeruginosa ([9]; Pseudomonas aeruginosa, 10 h cultivation at 37° C.)
25 µg/mL: MIC against A. hydrophila ([4]; Aeromonas hydrophila, 10 h cultivation at 37° C.) | MIC against P. vulgaris ([5]; Proteus vulgaris, 10 h cultivation at 37° C.) | MIC against M. catarrhalis ([10]; Moraxella catarrhalis, 10 h cultivation at 37° C.)

PRT662 (RIYFCQIPCLNGGRCIGRDECWCPANSTGKFCH; listed as Homo sapiens)
50 µg/mL: MIC K. pneumonia ([3]; 96-well plate, 37° C., 10 h) | MIC P. mirabilis ([8]; 96-well plate, 37° C., 10 h) | MIC S. marcescens ([11]; 96-well plate, 37° C., 10 h)
12.5 µg/mL: MIC E. coli BL21 ([1]; 96-well plate, 37° C., 10 h) | MIC A. hydrophila ([4]; 96-well plate, 37° C., 10 h) | MIC P. vulgaris ([5]; 96-well plate, 37° C., 10 h)
25 µg/mL: MIC E. cloacae ([2]; 96-well plate, 37° C., 10 h) | MIC [6] | MIC C. diversus ([7]; 96-well plate, 37° C., 10 h) | MIC P. aeruginosa ([9]; 96-well plate, 37° C., 10 h) | MIC M. catarrhalis ([10]; 96-well plate, 37° C., 10 h)

PRT534 (CKCHKAGTVSGTGECRQGDGDCHCKSHVGGDSCDTCEDGYFALEKSNYFGCQG; listed as Homo sapiens)
50 µg/mL: MIC against E. cloacae ([2]; 96-well plate, 37° C., 10 h) | MIC against P. vulgaris ([5]; 96-well plate, 37° C., 10 h) | MIC [6] | MIC against C. diversus ([7]; 96-well plate, 37° C., 10 h) | MIC against P. aeruginosa ([9]; 96-well plate, 37° C., 10 h)
12.5 µg/mL: MIC against E. coli BL21 ([1]; 96-well plate, 37° C., 10 h) | MIC against K. pneumonia ([3]; 96-well plate, 37° C., 10 h) | MIC against A. hydrophila ([4]; 96-well plate, 37° C., 10 h) | MIC against M. catarrhalis ([10]; 96-well plate, 37° C., 10 h)
25 µg/mL: MIC against P. mirabilis ([8]; 96-well plate, 37° C., 10 h) | MIC against S. marcescens ([11]; 96-well plate, 37° C., 10 h)

PRT533 (GTINSNLGYCQCKLHVEGPTCSRCKLLYWNLDKENPSGCSE; listed as Homo sapiens)
100 µg/mL: MIC against P. aeruginosa ([9]; 96-well plate, 37° C., 10 h)
50 µg/mL: MIC against E. cloacae ([2]; 96-well plate, 37° C., 10 h) | MIC [6] | MIC against P. mirabilis ([8]; 96-well plate, 37° C., 10 h)
25 µg/mL: MIC against E. coli BL21 ([1]; 96-well plate, 37° C., 10 h) | MIC against K. pneumonia ([3]; 96-well plate, 37° C., 10 h) | MIC against A. hydrophila ([4]; 96-well plate, 37° C., 10 h) | MIC against P. vulgaris ([5]; 96-well plate, 37° C., 10 h) | MIC against M. catarrhalis ([10]; 96-well plate, 37° C., 10 h)
12.5 µg/mL: MIC against C. diversus ([7]; 96-well plate, 37° C., 10 h) | MIC against S. marcescens ([11]; 96-well plate, 37° C., 10 h)

PRT1078 (GTNKCRVNNGGCSSLCLATPGSRQCACAEDQVLDADGVTCL; listed as Homo sapiens)
12.5 µg/mL: MIC K. pneumonia [3, 12] | MIC C. diversus [7, 12] | MIC P. mirabilis [8, 12] | MIC S. marcescens [11, 12]
25 µg/mL: MIC E. cloacae [2, 12] | MIC [6] | MIC P. aeruginosa [9, 12]
50 µg/mL: MIC E. coli BL21 [1, 12] | MIC A. hydrophila [4, 12] | MIC P. vulgaris [5, 12] | MIC M. catarrhalis [10, 12]

PRT1308 (TSPQCPRKCDPNANCVQDSAGASTCACAAGYSGNGIFCS; listed as Homo sapiens)
25 µg/mL: MIC against C. diversus [7, 19] | MIC against P. mirabilis [8, 20]
50 µg/mL: MIC against E. cloacae [2, 15] | MIC [6] | MIC against P. aeruginosa [9, 21] | MIC against M. catarrhalis [10, 22] | MIC against S. marcescens [11, 23]
12.5 µg/mL: MIC against E. coli BL21 [1, 14] | MIC against K. pneumonia [3, 16] | MIC against A. hydrophila [4, 17] | MIC against P. vulgaris [5, 18]

Reference: patent US9833497B2, “Human originated EGF domain proteins and use of the same” (CHENGDU SOURCEBIO LIMITED-LIABILITY COMPANY, priority 2013, dated 2017)
